Where two headings read alike, the source gives them in different places. Starred links: 1 amine or outer side, 2 acyl side, 3 side chain; linkers in the order of their positions; H or OH if unused. Non-standard residues stand in square brackets, D forms with d. Residues, ends and D or L forms follow the SMILES beside them. Groups on a side chain read outwards from the residue. *: point of attachment. C18 diacid = O=C(O)CCCCCCCCCCCCCCCCC(=O)*; γGlu = O=C(O)[C@H](CCC(=O)[*:2])N[*:1]; αMeF = C[C@](N)(Cc1ccccc1)C(=O)O; AEEA = NCCOCCOCC(=O)O; Aib = CC(C)(N)C(=O)O
Legend:
[1] = target: human glucagon receptor (hGCGR) (Homo sapiens, UniProt P47871); experiment: cAMP production (HTRF) in CHO cells expressing hGCGR; assay type: cell-based; parameters: expressed in transfected cells; settings: Table 6, peptides modified at position 17, cAMP in CHO hGCGR cells, geometric mean
How it was run: (§1)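 Read-out: HTRF cAMP (anti-cAMP cryptate donor, cAMP-d2 acceptor in conjugate/lysis buffer), converted to % Delta F and fitted by 4-parameter logistic for EC50. Cell densities were 1×10^5 cells/mL (hGLP-1R) or 2×10^5 cells/mL (hGCGR). Stimulation lasted 30 min at room temperature.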

[2] = target: human GLP-1 receptor (hGLP-1R) (Homo sapiens, UniProt P43220); experiment: cAMP production (HTRF) in CHO cells expressing hGLP-1R; assay type: cell-based; parameters: expressed in transfected cells; settings: for EC50: Table 6, peptides modified at position 17, cAMP in CHO hGLP-1R cells, geometric mean; for % Relative Potency Ratio: Table 6, % GLP-1R activity relative to GLP-1 / % GlucR activity relative to glucagon
How it was run: as §1

Chain of human GLP-1 receptor (hGLP-1R) (P43220 24-463): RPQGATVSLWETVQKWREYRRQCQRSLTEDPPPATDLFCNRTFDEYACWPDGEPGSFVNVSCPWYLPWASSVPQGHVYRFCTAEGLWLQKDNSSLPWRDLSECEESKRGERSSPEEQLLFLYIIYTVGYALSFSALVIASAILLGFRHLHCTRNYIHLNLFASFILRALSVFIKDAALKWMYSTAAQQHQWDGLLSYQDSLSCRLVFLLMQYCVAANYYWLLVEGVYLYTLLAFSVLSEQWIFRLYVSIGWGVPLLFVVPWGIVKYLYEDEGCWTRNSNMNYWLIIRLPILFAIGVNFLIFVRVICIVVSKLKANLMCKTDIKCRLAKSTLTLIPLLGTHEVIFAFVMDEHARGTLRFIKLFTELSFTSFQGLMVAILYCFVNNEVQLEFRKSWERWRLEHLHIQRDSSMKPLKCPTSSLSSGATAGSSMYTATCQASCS
Chain of human glucagon receptor (hGCGR) (P47871 26-477): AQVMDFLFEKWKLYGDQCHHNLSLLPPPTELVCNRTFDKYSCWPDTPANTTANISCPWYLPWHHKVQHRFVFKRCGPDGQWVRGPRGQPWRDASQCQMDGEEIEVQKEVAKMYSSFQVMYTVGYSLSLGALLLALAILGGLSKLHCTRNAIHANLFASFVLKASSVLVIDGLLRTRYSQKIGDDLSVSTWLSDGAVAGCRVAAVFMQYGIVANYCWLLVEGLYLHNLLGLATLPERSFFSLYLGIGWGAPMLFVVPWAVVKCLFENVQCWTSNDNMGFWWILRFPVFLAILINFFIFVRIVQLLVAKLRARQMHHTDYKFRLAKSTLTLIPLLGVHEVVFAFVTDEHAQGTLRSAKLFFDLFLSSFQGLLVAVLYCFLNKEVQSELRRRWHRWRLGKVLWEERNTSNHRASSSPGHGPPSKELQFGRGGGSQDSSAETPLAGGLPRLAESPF

Row | EC50 ([1]; read-out: hGluc-R EC50) [pM] | EC50 ([2]; read-out: hGLP-1R EC50) [pM] | % Relative Potency Ratio [2] | SMILES | EC50 ([1]; hGluc-R EC50 (pM)) [pM] | EC50 ([2]; hGLP-1R EC50 (pM)) [pM]
1 | 1030 | 50.9 | 40.0 | CC(C)C[C@H](NC(=O)[C@H](Cc1c[nH]c2ccccc12)NC(=O)[C@H](CCCNC(=N)N)NC(=O)[C@@H](NC(=O)[C@H](Cc1ccccc1)NC(=O)[C@H](CC(=O)O)NC(=O)[C@H](CCC(N)=O)NC(=O)[C@H](C)NC(=O)[C@H](CCCNC(=N)N)NC(=O)[C@H](CCCCNC(=O)COCCOCCNC(=O)COCCOCCNC(=O)CC[C@H](NC(=O)CCCCCCCCCCCCCCCCC(=O)O)C(=O)O)NC(=O)[C@H](CO)NC(=O)[C@H](CC(=O)O)NC(=O)[C@H](CC(C)C)NC(=O)[C@](C)(Cc1ccccc1)NC(=O)[C@H](CCCCN)NC(=O)[C@H](CO)NC(=O)[C@@H](NC(=O)[C@H](CC(=O)O)NC(=O)[C@H](CO)NC(=O)[C@@H](NC(=O)[C@H](Cc1ccccc1)NC(=O)[C@@H](NC(=O)CNC(=O)[C@H](CCC(N)=O)NC(=O)C(C)(C)NC(=O)[C@@H](N)Cc1c[nH]cn1)[C@@H](C)O)[C@@H](C)O)C(C)C)C(C)C)C(=O)N[C@H](C(=O)NC(C)(C)C(=O)N[C@H](C(=O)N[C@@H](CCC(=O)O)C(=O)O)[C@@H](C)O)C(C)C [Peptide 165] (H-H[Aib]QGTFTSDVSK[αMeF]LDSK([AEEA-AEEA-γGlu-C18 diacid])RAQDFVRWLV[Aib]TE-OH; N-terminus assumed) |  | 
2 | 270 | 48 | 11.1 | CC(C)C[C@H](NC(=O)[C@H](Cc1c[nH]c2ccccc12)NC(=O)[C@H](CCCNC(=N)N)NC(=O)[C@@H](NC(=O)[C@H](Cc1ccccc1)NC(=O)[C@H](CC(=O)O)NC(=O)[C@H](CCCNC(=N)N)NC(=O)[C@H](C)NC(=O)[C@H](CCCNC(=N)N)NC(=O)[C@H](CCCCNC(=O)COCCOCCNC(=O)COCCOCCNC(=O)CC[C@H](NC(=O)CCCCCCCCCCCCCCCCC(=O)O)C(=O)O)NC(=O)[C@H](CO)NC(=O)[C@H](CC(=O)O)NC(=O)[C@H](CC(C)C)NC(=O)[C@](C)(Cc1ccccc1)NC(=O)[C@H](CCCCN)NC(=O)[C@H](CO)NC(=O)[C@@H](NC(=O)[C@H](CC(=O)O)NC(=O)[C@H](CO)NC(=O)[C@@H](NC(=O)[C@H](Cc1ccccc1)NC(=O)[C@@H](NC(=O)CNC(=O)[C@H](CCC(N)=O)NC(=O)C(C)(C)NC(=O)[C@@H](N)Cc1c[nH]cn1)[C@@H](C)O)[C@@H](C)O)C(C)C)C(C)C)C(=O)N[C@@H](CC(C)C)C(=O)NC(C)(C)C(=O)N[C@H](C(=O)N[C@@H](CCC(=O)O)C(=O)O)[C@@H](C)O [Peptide 166] (H-H[Aib]QGTFTSDVSK[αMeF]LDSK([AEEA-AEEA-γGlu-C18 diacid])RARDFVRWLL[Aib]TE-OH; N-terminus assumed) |  | 
3 | 311 | 76.8 | 8.0 | CC(C)C[C@H](NC(=O)[C@H](Cc1c[nH]c2ccccc12)NC(=O)[C@H](C)NC(=O)[C@@H](NC(=O)[C@H](Cc1ccccc1)NC(=O)[C@H](CC(=O)O)NC(=O)[C@H](CCCNC(=N)N)NC(=O)[C@H](C)NC(=O)[C@H](CCCNC(=N)N)NC(=O)[C@H](CCCCNC(=O)COCCOCCNC(=O)COCCOCCNC(=O)CC[C@H](NC(=O)CCCCCCCCCCCCCCCCC(=O)O)C(=O)O)NC(=O)[C@H](CO)NC(=O)[C@H](CC(=O)O)NC(=O)[C@H](CC(C)C)NC(=O)[C@](C)(Cc1ccccc1)NC(=O)[C@H](CCCCN)NC(=O)[C@H](CO)NC(=O)[C@@H](NC(=O)[C@H](CC(=O)O)NC(=O)[C@H](CO)NC(=O)[C@@H](NC(=O)[C@H](Cc1ccccc1)NC(=O)[C@@H](NC(=O)CNC(=O)[C@H](CCC(N)=O)NC(=O)C(C)(C)NC(=O)[C@@H](N)Cc1c[nH]cn1)[C@@H](C)O)[C@@H](C)O)C(C)C)C(C)C)C(=O)N[C@@H](CC(C)C)C(=O)NC(C)(C)C(=O)N[C@H](C(=O)N[C@@H](CCC(=O)O)C(=O)O)[C@@H](C)O [Peptide 167] (H-H[Aib]QGTFTSDVSK[αMeF]LDSK([AEEA-AEEA-γGlu-C18 diacid])RARDFVAWLL[Aib]TE-OH; N-terminus assumed) |  | 
4 | 886 | 448 | 3.9 | CC(C)C[C@H](NC(=O)[C@H](C)NC(=O)[C@H](CCCNC(=N)N)NC(=O)[C@H](CCCCNC(=O)COCCOCCNC(=O)COCCOCCNC(=O)CC[C@H](NC(=O)CCCCCCCCCCCCCCCCC(=O)O)C(=O)O)NC(=O)[C@H](CO)NC(=O)[C@H](CC(=O)O)NC(=O)[C@H](CC(C)C)NC(=O)[C@](C)(Cc1ccccc1)NC(=O)[C@H](CCCCN)NC(=O)[C@H](CO)NC(=O)[C@@H](NC(=O)[C@H](CC(=O)O)NC(=O)[C@H](CO)NC(=O)[C@@H](NC(=O)[C@H](Cc1ccccc1)NC(=O)[C@@H](NC(=O)CNC(=O)[C@H](CCC(N)=O)NC(=O)C(C)(C)NC(=O)[C@@H](N)Cc1c[nH]cn1)[C@@H](C)O)[C@@H](C)O)C(C)C)C(=O)N[C@@H](CC(=O)O)C(=O)N[C@@H](Cc1ccccc1)C(=O)N[C@H](C(=O)N[C@@H](CCCNC(=N)N)C(=O)N[C@@H](Cc1c[nH]c2ccccc12)C(=O)N[C@@H](CC(C)C)C(=O)N[C@@H](CC(C)C)C(=O)NC(C)(C)C(=O)N[C@H](C(=O)N[C@@H](CCC(=O)O)C(=O)O)[C@@H](C)O)C(C)C [Peptide 168] (H-H[Aib]QGTFTSDVSK[αMeF]LDSK([AEEA-AEEA-γGlu-C18 diacid])RALDFVRWLL[Aib]TE-OH; N-terminus assumed) |  | 
5 |  |  |  | CC(C)C[C@H](NC(=O)[C@H](CCC(=O)O)NC(=O)[C@H](CC(C)C)NC(=O)[C@](C)(Cc1ccccc1)NC(=O)[C@H](CCCCN)NC(=O)[C@H](CO)NC(=O)[C@@H](NC(=O)[C@H](CC(=O)O)NC(=O)[C@H](CO)NC(=O)[C@@H](NC(=O)[C@H](Cc1ccccc1)NC(=O)[C@@H](NC(=O)CNC(=O)[C@H](CCC(N)=O)NC(=O)C(C)(C)NC(=O)[C@@H](N)Cc1c[nH]cn1)[C@@H](C)O)[C@@H](C)O)C(C)C)C(=O)N[C@@H](CCCCNC(=O)COCCOCCNC(=O)COCCOCCNC(=O)CC[C@H](NC(=O)CCCCCCCCCCCCCCCCC(=O)O)C(=O)O)C(=O)N[C@@H](CCCNC(=N)N)C(=O)N[C@@H](C)C(=O)N[C@@H](CCC(N)=O)C(=O)N[C@@H](CC(=O)O)C(=O)N[C@@H](Cc1ccccc1)C(=O)N[C@H](C(=O)N[C@@H](CCCNC(=N)N)C(=O)N[C@@H](Cc1c[nH]c2ccccc12)C(=O)N[C@@H](CC(C)C)C(=O)N[C@@H](CC(C)C)C(=O)NC(C)(C)C(=O)N[C@H](C(=O)N[C@@H](CCC(=O)O)C(=O)O)[C@@H](C)O)C(C)C [Peptide 169] (H-H[Aib]QGTFTSDVSK[αMeF]LELK([AEEA-AEEA-γGlu-C18 diacid])RAQDFVRWLL[Aib]TE-OH; N-terminus assumed) | 1400 | 210
